From patent US20240200091A1, “USE OF PROTOPORPHYRINOGEN OXIDASE” (BEIJING DABEINONG BIOTECHNOLOGY CO., LTD., priority 2021, published 2024)

B1: PPO8A: nucleotide sequence encoding microbial protoporphyrinogen oxidase PPO8 (SEQ ID NO:8), Arabidopsis thaliana/soybean common codon usage bias (nucleic acid)
DNA: ATGTCAAATGAGACACAAGCCAAACAAGCTGAAACGAAACAGACTGAGTCTTCTGTCGTAAGCAAAACGCTGGTGTTGTACTCGTCCGTCGATGGTCAAACCTTAAAGATCATTAATCGTATTAAGCAGACCCTGACAGGAGAAGTTATTGTTTTGAATGTTGATGATAATCCAACTATCGATTTTAGCCTTTATCAGAAGGTCTTGATTGGAGCATCAATCCGGTATGGGAACTTTAGACCGAACATCATAAAGTTTGTTAATCAGCATAAAACACAACTTGACGCGGTGTGCAACGCTTTCTTCGTGGTTTGTCTCACAGCAAGAAAACCAGAGAAAGCTGTTCCTGAAAACAATGCATACATGAAGAAATTTGATCAGCTAAGTCAATGGCAACCTCAGTTCAAGGGAGTATTCGCGGGTGCTTTATTGTATTCACGATACAACTGGTGGCAGACACTTCTCATACAACTAATAATGAAGATGACTGGTGGCAGTACTGACAAAACTCAAGATATTGAGCTTACCGATTGGGAAAAGGTGGATTCTTTCGCACAAGACTTTGCTGCCAGGTGA
modifications: The nucleotide sequence of PPO8A

What was measured:
Format in all cases: in vivo
[1] = system: Arabidopsis thaliana T1 plants; assay: sulfentrazone tolerance of transgenic Arabidopsis thaliana T1 plants (spray, grade of pesticide damage); settings: for The grade of pesticide: grade 0 / The grade of pesticide: grade 1 / The grade of pesticide: grade 2 / The grade of pesticide: grade 3: 7 DAT, number of plants of 24 per genotype, grades
Text: (§1) The transformed Arabidopsis thaliana T1 plants were initially selected using glufosinate herbicide. The Arabidopsis thaliana T1 plants (PPO1A) into which the PPO1A nucleotide sequence was introduced, the Arabidopsis thaliana T1 plants (PPO2A) into which the PPO2A nucleotide sequence was introduced, the Arabidopsis thaliana T1 plants (PPO3A) into which the PPO3A nucleotide sequence was introduced, the Arabidopsis thaliana T1 plants (PPO4A) into which the PPO4A nucleotide sequence was introduced, the Arabidopsis thaliana T1 plants (PPO5A) into which the PPO5A nucleotide sequence was introduced, the Arabidopsis thaliana T1 plants (PPO6A) into which the PPO6A nucleotide sequence was introduced, the Arabidopsis thaliana T1 plants (PPO7A) into which the PPO7A nucleotide sequence was introduced, the Arabidopsis thaliana T1 plants (PPO8A) into which the PPO8A nucleotide sequence was introduced, the Arabidopsis thaliana T1 plants (PPO9A) into which the PPO9A nucleotide sequence was introduced, the Arabidopsis thaliana T1 plants (PPO10A) into which the […] nucleotide sequence was introduced, the Arabidopsis thaliana T1 plants (PPO11A) into which the PPO11A nucleotide sequence was introduced, the Arabidopsis thaliana T1 plants (PPO12A) into which the PPO12A nucleotide sequence was introduced, the Arabidopsis thaliana T1 plants (PPO13A) into which the PPO13A nucleotide sequence was introduced, the Arabidopsis thaliana T1 plants (PPO14A) into which the PPO14A nucleotide sequence was introduced, the Arabidopsis thaliana T1 plants (PPO-ATA) into which the PPO-ATA nucleotide sequence was introduced, the Arabidopsis thaliana T1 plants (PPO-APA) into which the PPO-APA nucleotide sequence was introduced, the Arabidopsis thaliana T1 plants (control vector) into which the control vector was introduced, and the wild-type Arabidopsis thaliana plants (CK) (with 24 plants being included in each genotype) (18 days after sowing) were sprayed with oxyfluorfen at three concentrations (180 g ai/ha (one-fold field concentration, 1×), 720 g ai/ha (four-fold field concentration, 4×), and 0 g ai/ha (water, 0×)), saflufenacil at three concentrations (25 g ai/ha (one-fold field concentration, 1×), 100 g ai/ha (four-fold field concentration, 4×), and 0 g ai/ha (water, 0×)), flumioxazin at three concentrations (60 g ai/ha (one-fold field concentration, 1×), 240 g ai/ha (four-fold field concentration, 4×), and 0 g ai/ha (water, 0×), and sulfentrazone at three concentrations (450 g ai/ha (one-fold field concentration, 1×), 900 g ai/ha (two-fold field concentration, 2×), and 0 g ai/ha (water, 0×) to determine the tolerance of Arabidopsis thaliana to the herbicides. After 7 days of spraying (7 DAT), the damage level of each plant caused by the herbicide was evaluated according to the average of the damage levels (%) of plants (the average of the damage levels (%) of plants=the injured leaf area/the total leaf area×[…]), i.e., the grade of pesticide damage: grade 0 means that the growth status of plants is essentially consistent with those sprayed with the blank solvent (water); grade 1 means that the average of the damage levels of plants is less than 10%; grade 2 means that the average of the damage levels of plants is greater than […]; and grade 3 means that the average of the damage levels of plants is 100%. The plants having a growth status falling within grades 0 and 1 are classified as highly resistant plants; those having a growth status falling within grade 2 are classified as poorly resistant plants; and those having a growth status falling within grade 3 are classified as non-resistant plants.

[2] = system: Arabidopsis thaliana T1 plants; assay: flumioxazin tolerance of transgenic Arabidopsis thaliana T1 plants (spray, grade of pesticide damage); settings: for The grade of pesticide damage/plant: grade 0 / The grade of pesticide damage/plant: grade 1 / The grade of pesticide damage/plant: grade 2 / The grade of pesticide damage/plant: grade 3: 7 DAT, number of plants of 24 per genotype, grades
Text: as §1

[3] = system: Arabidopsis thaliana T1 plants; assay: oxyfluorfen tolerance of transgenic Arabidopsis thaliana T1 plants (spray, grade of pesticide damage); settings: for The grade of pesticide damage/plant: grade 0 / The grade of pesticide damage/plant: grade 1 / The grade of pesticide damage/plant: grade 2 / The grade of pesticide damage/plant: grade 3: 7 DAT, number of plants of 24 per genotype, grades
Text: as §1

[4] = system: Arabidopsis thaliana T1 plants; assay: saflufenacil tolerance of transgenic Arabidopsis thaliana T1 plants (spray, grade of pesticide damage); settings: for The grade of pesticide damage/plant: grade 0 / The grade of pesticide damage/plant: grade 1 / The grade of pesticide damage/plant: grade 2 / The grade of pesticide damage/plant: grade 3: 7 DAT, number of plants of 24 per genotype, grades
Text: as §1

[5] = saflufenacil at four-fold field concentration, of 24 plants

| Molecule | The grade of pesticide: grade 0 ([1]; sulfentrazone 450 g ai/ha (1×)) | The grade of pesticide: grade 1 ([1]; sulfentrazone 450 g ai/ha (1×)) | The grade of pesticide: grade 2 ([1]; sulfentrazone 450 g ai/ha (1×)) | The grade of pesticide: grade 3 ([1]; sulfentrazone 450 g ai/ha (1×)) | The grade of pesticide: grade 0 ([1]; sulfentrazone 900 g ai/ha (2×)) | The grade of pesticide: grade 1 ([1]; sulfentrazone 900 g ai/ha (2×)) | The grade of pesticide: grade 2 ([1]; sulfentrazone 900 g ai/ha (2×)) | The grade of pesticide: grade 3 ([1]; sulfentrazone 900 g ai/ha (2×)) | The grade of pesticide damage/plant: grade 0 ([4]; saflufenacil 25 g ai/ha (1×)) | The grade of pesticide damage/plant: grade 1 ([4]; saflufenacil 25 g ai/ha (1×)) | The grade of pesticide damage/plant: grade 2 ([4]; saflufenacil 25 g ai/ha (1×)) | The grade of pesticide damage/plant: grade 3 ([4]; saflufenacil 25 g ai/ha (1×)) | The grade of pesticide damage/plant: grade 0 ([4]; saflufenacil 100 g ai/ha (4×)) | The grade of pesticide damage/plant: grade 1 ([4]; saflufenacil 100 g ai/ha (4×)) | The grade of pesticide damage/plant: grade 2 ([4]; saflufenacil 100 g ai/ha (4×)) | The grade of pesticide damage/plant: grade 3 ([4]; saflufenacil 100 g ai/ha (4×)) | The grade of pesticide damage/plant: grade 0 ([3]; oxyfluorfen 180 g ai/ha (1×)) | The grade of pesticide damage/plant: grade 1 ([3]; oxyfluorfen 180 g ai/ha (1×)) | The grade of pesticide damage/plant: grade 2 ([3]; oxyfluorfen 180 g ai/ha (1×)) | The grade of pesticide damage/plant: grade 3 ([3]; oxyfluorfen 180 g ai/ha (1×)) | also measured |
| --- | --- | --- | --- | --- | --- | --- | --- | --- | --- | --- | --- | --- | --- | --- | --- | --- | --- | --- | --- | --- | --- |
| Cc1nn(-c2cc(NS(C)(=O)=O)c(Cl)cc2Cl)c(=O)n1C(F)F [sulfentrazone, N-(2,4-dichloro-5-(4-difluoromethyl-4,5-dihydro-3-methyl-5-oxo-1H-1,2,4-triazole-1-yl)phenyl)methanesulfonamide, reference compound] | – | – | – | – | – | – | – | – | – | – | – | – | – | – | – | – | – | – | – | – | effective dose distinguishing sensitive plants from plants having an average level of resistance ([1]; for Arabidopsis thaliana, sulfentrazone herbicide): 450 g ai/ha |
| C#CCN1C(=O)COc2cc(F)c(N3C(=O)C4=C(CCCC4)C3=O)cc21 [flumioxazin, 2-[7-fluoro-3,4-dihydro-3-oxo-4-(2-propynyl)-2H-1,4-benzoxazin-6-yl]-4,5,6,7-tetrahydro-1H-isoindole-1,3(2H)-dione, reference compound] | – | – | – | – | – | – | – | – | – | – | – | – | – | – | – | – | – | – | – | – | effective dose distinguishing sensitive plants from plants having an average level of resistance ([2]; for Arabidopsis thaliana, flumioxazin herbicide): 60 g ai/ha |
| CCOc1cc(Oc2ccc(C(F)(F)F)cc2Cl)ccc1[N+](=O)[O-] [oxyfluorfen, 2-chloro-1-(3-ethoxy-4-nitrophenoxy)-4-trifluoromethylbenzene, reference compound] | – | – | – | – | – | – | – | – | – | – | – | – | – | – | – | – | – | – | – | – | effective dose distinguishing sensitive plants from plants having an average level of resistance ([3]; for Arabidopsis thaliana, oxyfluorfen herbicide): 180 g ai/ha |
| PPO-ATA: nucleotide sequence encoding Arabidopsis protoporphyrinogen oxidase PPO-AT (SEQ ID NO:46), Arabidopsis thaliana/soybean common codon usage bias [reference compound] | 0 | 0 | 0 | 24 | 0 | 0 | 0 | 24 | 0 plant | 0 plant | 0 plant | 24 plant | 0 plant | 0 plant | 0 plant | 24 plant | 0 plant | 0 plant | 8 plant | 16 plant | tolerance to sulfentrazone ([1]; sulfentrazone at different concentrations (450 and 900 g ai/ha)): no tolerance; tolerance to saflufenacil ([4]; saflufenacil at four-fold field concentration (100 g ai/ha)): no tolerance; tolerance to saflufenacil ([4]; saflufenacil at one-fold field concentration (25 g ai/ha)): no tolerance; The grade of pesticide damage/plant: grade 0 ([3]; oxyfluorfen 720 g ai/ha (4×)): 0 plant; The grade of pesticide damage/plant: grade 1 ([3]; oxyfluorfen 720 g ai/ha (4×)): 0 plant; The grade of pesticide damage/plant: grade 2 ([3]; oxyfluorfen 720 g ai/ha (4×)): 0 plant; The grade of pesticide damage/plant: grade 3 ([3]; oxyfluorfen 720 g ai/ha (4×)): 24 plant; tolerance to oxyfluorfen ([3]; oxyfluorfen at different concentrations (180 and 720 g ai/ha), compared with the control vector and CK): basically no tolerance; The grade of pesticide damage/plant: grade 0 ([2]; flumioxazin 60 g ai/ha (1×)): 0 plant; The grade of pesticide damage/plant: grade 1 ([2]; flumioxazin 60 g ai/ha (1×)): 0 plant; The grade of pesticide damage/plant: grade 2 ([2]; flumioxazin 60 g ai/ha (1×)): 2 plant; The grade of pesticide damage/plant: grade 3 ([2]; flumioxazin 60 g ai/ha (1×)): 22 plant; The grade of pesticide damage/plant: grade 0 ([2]; flumioxazin 240 g ai/ha (4×)): 0 plant; The grade of pesticide damage/plant: grade 1 ([2]; flumioxazin 240 g ai/ha (4×)): 0 plant; The grade of pesticide damage/plant: grade 2 ([2]; flumioxazin 240 g ai/ha (4×)): 0 plant; The grade of pesticide damage/plant: grade 3 ([2]; flumioxazin 240 g ai/ha (4×)): 24 plant; tolerance to flumioxazin ([2]; flumioxazin at different concentrations (60 and 240 g ai/ha)): basically no tolerance |
| CC(C)N(C)S(=O)(=O)NC(=O)c1cc(-n2c(=O)cc(C(F)(F)F)n(C)c2=O)c(F)cc1Cl [saflufenacil, N′-[2-chloro-4-fluoro-5-(3-methyl-2,6-dioxo-4-(trifluoromethyl)-3,6-dihydro-1(2H)-pyrimidine)benzoyl]-N-isopropyl-N-methylsulfamide, reference compound] | – | – | – | – | – | – | – | – | – | – | – | – | – | – | – | – | – | – | – | – | effective dose distinguishing sensitive plants from plants having an average level of resistance ([4]; for Arabidopsis thaliana, saflufenacil herbicide): 25 g ai/ha |
| B1 | 24 | 0 | 0 | 0 | 22 | 2 | 0 | 0 | 24 plant | 0 plant | 0 plant | 0 plant | 8 plant | 14 plant | 2 plant | 0 plant | 24 plant | 0 plant | 0 plant | 0 plant | plants that exhibited high-resistant tolerance [4, 5]: 22 plants; plants that exhibited moderate- or poor-resistant tolerance [4, 5]: 2 plants; The grade of pesticide damage/plant: grade 0 ([3]; oxyfluorfen 720 g ai/ha (4×)): 20 plant; The grade of pesticide damage/plant: grade 1 ([3]; oxyfluorfen 720 g ai/ha (4×)): 4 plant; The grade of pesticide damage/plant: grade 2 ([3]; oxyfluorfen 720 g ai/ha (4×)): 0 plant; The grade of pesticide damage/plant: grade 3 ([3]; oxyfluorfen 720 g ai/ha (4×)): 0 plant; The grade of pesticide damage/plant: grade 0 ([2]; flumioxazin 60 g ai/ha (1×)): 24 plant; The grade of pesticide damage/plant: grade 1 ([2]; flumioxazin 60 g ai/ha (1×)): 0 plant; The grade of pesticide damage/plant: grade 2 ([2]; flumioxazin 60 g ai/ha (1×)): 0 plant; The grade of pesticide damage/plant: grade 3 ([2]; flumioxazin 60 g ai/ha (1×)): 0 plant; The grade of pesticide damage/plant: grade 0 ([2]; flumioxazin 240 g ai/ha (4×)): 23 plant; The grade of pesticide damage/plant: grade 1 ([2]; flumioxazin 240 g ai/ha (4×)): 1 plant; The grade of pesticide damage/plant: grade 2 ([2]; flumioxazin 240 g ai/ha (4×)): 0 plant; The grade of pesticide damage/plant: grade 3 ([2]; flumioxazin 240 g ai/ha (4×)): 0 plant |
